The values that follow come from ChEMBL document CHEMBL3785008, “Piperine in food: interference in the pharmacokinetics of phenytoin” (Eur J Drug Metab Pharmacokinet, 2001).

In one data set the test system is Mus musculus. The experiment in a line: Ratio of drug level in 0.6 mg, po piperine pre-treated Swiss albino mouse at 10 mg, po to drug level in normal Swiss albino mouse at 10 mg, po. Type of data set: ADME, organism-based. To be noted: in vivo.
A short description of data set [1]: AUC (0 to 10 hrs) in normal Swiss albino mouse at 10 mg, po by HPLC method. It is filed as ADME, organism-based. More on the design: time < 10 hr, dose 10 mg, route oral. Particulars: in vivo.
A short description of data set [2]: AUC (0 to 10 hrs) in 0.6 mg, po piperine pre-treated Swiss albino mouse at 10 mg, po by HPLC method. The arrangement: dose 0.6 mg, time < 10 hr, route oral. Type of data set: ADME, organism-based. To be noted: in vivo.
Data set [3] can be described thus: AUC (0 to 48 hrs) in healthy adult human subjects at 300 mg, po by HPLC method. Particulars: in vivo. Type of data set: ADME, organism-based. More on the design: time < 48 hr, dose 300 mg, route oral.
A short description of data set [4]: AUC (0 to infinity) in healthy adult human subjects at 300 mg, po by HPLC method. Type of data set: ADME, organism-based. More on the design: dose 300 mg, route oral, time infinity. To be noted: in vivo.
The test system of data set [5] is Homo sapiens. Put plainly: Drug absorption in healthy adult human subjects at 300 mg, po by HPLC method. Type of data set: ADME, organism-based. To be noted: in vivo.
Data set [6] has as its system Homo sapiens. The experiment in a line: Drug lag time in healthy adult human subjects at 300 mg, po by HPLC method. Type of data set: ADME, organism-based. Particulars: in vivo.
Data set [7] in a line: Elimination half life in healthy adult human subjects at 300 mg, po by HPLC method. Type of data set: ADME, organism-based. To be noted: in vivo, read-out: beta t1/2 (converted).
Data set [8] can be described thus: Clearance in healthy adult human subjects at 300 mg, po by HPLC method. To be noted: in vivo. It is filed as ADME, organism-based.
Data set [9] concerns Homo sapiens. The experiment in a line: Volume of distribution in healthy adult human subjects at 300 mg, po by HPLC method. It is filed as ADME, organism-based. To be noted: in vivo.
The nature of data set [10]: Cmax in healthy adult human subjects at 300 mg, po by HPLC method. Particulars: in vivo. It is filed as ADME, organism-based. More on the design: dose 300 mg, route oral.
A short description of data set [11]: Tmax in healthy adult human subjects at 300 mg, po by HPLC method. It is filed as ADME, organism-based. Particulars: in vivo.
Data set [12] can be described thus: Mean residence time in healthy adult human subjects at 300 mg, po by HPLC method. To be noted: in vivo. Type of data set: ADME, organism-based.
Data set [13] is described as follows: AUC (0 to 48 hrs) in healthy adult human subjects at 300 mg, po dosed 30 minutes after ingestion of soup (melahu rasam) with black pepper by HPLC method. Type of data set: ADME, organism-based. More on the design: time < 48 hr, dose 300 mg, route oral. Particulars: in vivo.
Data set [14] is described as follows: AUC (0 to infinity) in healthy adult human subjects at 300 mg, po dosed 30 minutes after ingestion of soup (melahu rasam) with black pepper by HPLC method. Type of data set: ADME, organism-based. More on the design: dose 300 mg, time infinity, route oral. To be noted: in vivo.
Data set [15] concerns Homo sapiens. The experiment in a line: Drug absorption in healthy adult human subjects at 300 mg, po dosed 30 minutes after ingestion of soup (melahu rasam) with black pepper by HPLC method. Particulars: in vivo, 0.5 h. Type of data set: ADME, organism-based.
Data set [16] relates to Homo sapiens. Put plainly: Drug lag time in healthy adult human subjects at 300 mg, po dosed 30 minutes after ingestion of soup (melahu rasam) with black pepper by HPLC method. It is filed as ADME, organism-based. Particulars: in vivo, 0.5 h.
The nature of data set [17]: Elimination half life in healthy adult human subjects at 300 mg, po dosed 30 minutes after ingestion of soup (melahu rasam) with black pepper by HPLC method. Particulars: in vivo, read-out: beta t1/2 (converted). It is filed as ADME, organism-based.
A short description of data set [18]: Clearance in healthy adult human subjects at 300 mg, po dosed 30 minutes after ingestion of soup (melahu rasam) with black pepper by HPLC method. To be noted: in vivo. It is filed as ADME, organism-based.
In data set [19] the test system is Homo sapiens. The experiment in a line: Volume of distribution in healthy adult human subjects at 300 mg, po dosed 30 minutes after ingestion of soup (melahu rasam) with black pepper by HPLC method. Particulars: in vivo, 0.5 h. Type of data set: ADME, organism-based.
Data set [20] can be described thus: Cmax in healthy adult human subjects at 300 mg, po dosed 30 minutes after ingestion of soup (melahu rasam) with black pepper by HPLC method. Type of data set: ADME, organism-based. The arrangement: dose 300 mg, route oral. Particulars: in vivo.
Data set [21] can be described thus: Tmax in healthy adult human subjects at 300 mg, po dosed 30 minutes after ingestion of soup (melahu rasam) with black pepper by HPLC method. Type of data set: ADME, organism-based. To be noted: in vivo.
The nature of data set [22]: Mean residence time in healthy adult human subjects at 300 mg, po dosed 30 minutes after ingestion of soup (melahu rasam) with black pepper by HPLC method. Particulars: in vivo. It is filed as ADME, organism-based.
Data set [23] can be described thus: Drug excretion in human urine assessed as hydroxyphenylphenylhydantoin and glucuronide conjugate level. It is filed as ADME, tissue-based.
Data set [24] is described as follows: Cmax in Swiss albino mouse serum at 0.3 mg, po by HPLC method. Type of data set: ADME, organism-based. The arrangement: dose 0.3 mg, route oral.
Data set [25] can be described thus: Tmax in Swiss albino mouse serum at 0.3 mg, po by HPLC method. It is filed as ADME, organism-based.
A short description of data set [26]: Cmax in healthy adult human subjects after consumption of 44 mg equivalent of piperine in form of pepper in soup (melahu rasam) by HPLC method. It is filed as ADME, organism-based. The arrangement: dose 44 mg. Particulars: in vivo, po.
Data set [27] is described as follows: Tmax in healthy adult human subjects after consumption of 44 mg equivalent of piperine in form of pepper in soup (melahu rasam) by HPLC method. It is filed as ADME, organism-based. Particulars: in vivo, po.
Data set [28] is described as follows: AUC (0 to 12.5 hrs) in healthy adult human subjects after consumption of 44 mg equivalent of piperine in form of pepper in soup (melahu rasam) by HPLC method. It is filed as ADME, organism-based. More on the design: dose 44 mg, time < 12.5 hr. Particulars: in vivo, po.
Data set [29] can be described thus: AUC (0 to infinity) in healthy adult human subjects after consumption of 44 mg equivalent of piperine in form of pepper in soup (melahu rasam) by HPLC method. Type of data set: ADME, organism-based. The arrangement: dose 44 mg, time infinity. Particulars: in vivo, po.
Data set [30] is filed under the species Homo sapiens. Put plainly: Drug absorption rate constant in healthy adult human subjects after consumption of 44 mg equivalent of piperine in form of pepper in soup (melahu rasam) by HPLC method. Type of data set: ADME, organism-based. Particulars: in vivo, po.
Data set [31] in a line: Drug elimination rate constant in healthy adult human subjects after consumption of 44 mg equivalent of piperine in form of pepper in soup (melahu rasam) by HPLC method. It is filed as ADME, organism-based. To be noted: in vivo, po.

What is called AUC(0-t) is the area under the concentration-time curve up to a stated or last time point. The term AUC(0-inf) denotes total exposure, with the tail of the curve extrapolated. The term CL/F denotes the apparent clearance, not corrected for the fraction that reaches the circulation. By Cmax is commonly meant the peak of the concentration-time curve. By Tmax is commonly meant the time at which the peak concentration occurs. For orientation: MRT means the average time that molecules of a dose stay in the body. As to `O=C1N=C([O-])NC1(c1ccccc1)c1ccccc1.[Na+]` [PHENYTOIN SODIUM], the Ratio in the data set on Mus musculus came to 1.8. In addition, the area under the curve AUC(0-t) at 10 h is 716 µg·h/mL in data set [1] and 891 µg·h/mL in data set [2]. The values for the area under the curve AUC(0-t) at 48 h in data set [3] and in data set [13] were 102 µg·h/mL and 153 µg·h/mL, respectively. In addition, the results for the AUC(0-inf) in [4] and in data set [14] were 143 µg·h/mL and 332 µg·h/mL, respectively. For the same compound, the ka with Homo sapiens [5] was 0.666 h⁻¹; in the data set on Homo sapiens [15] it was 1.177 h⁻¹. The values for the Tlag in the data set with Homo sapiens [6] and with Homo sapiens [16] were 0.655 h and 0.168 h, respectively. In addition, the half-life in data set [7] is 1350 min; in data set [17], 2980 min. Also, the CL/F worked out at 41.3 mL/min in data set [8] and 15.9 mL/min in data set [18]. Moreover, the Vd with Homo sapiens [9] was found to be 65.02 L; with Homo sapiens [19], 64.58 L. In addition, the Cmax in data set [10] came out at 3820 ng/mL; in data set [20] it was 4310 ng/mL. Also, the results for the Tmax in [11] and in data set [21] were 5.32 h and 3.38 h, respectively. Further, the MRT amounted to 34.2 h in data set [12] and 70.9 h in data set [22].
For the compound `O=C1NC(=O)C(c2ccccc2)(c2ccccc2)N1` [PHENYTOIN], in [23], the Drug excretion was determined as 60%.
Regarding `O=C(/C=C/C=C/c1ccc2c(c1)OCO2)N1CCCCC1` [PIPERINE], the Cmax in [24] was determined as 5470 ng/mL; in [26], 400 ng/mL. Moreover, the Tmax in data set [25] stood at 6 h; in [27], 2.5 h. Besides, the AUC(0-t) at 12.5 h in data set [28] came to 3370 ng·h/mL. Moreover, the AUC(0-inf) in data set [29] is 5300 ng·h/mL. For the same compound, the ka in the data set listed under Homo sapiens [30] came out at 1.41 h⁻¹. In addition, the k el in data set [31] was 2.22e-05 s⁻¹.
